Data: patent US11453671B2, “Pyrazolopyrimidine inhibitors of JAK kinases and uses thereof” (Genentech, Inc., priority 2020, dated 2022)
Read-outs that look alike come from different tables or passages of the source.

Tests used:
[1] = system: JAK1: IL-13-stimulated STAT6 phosphorylation in BEAS-2B cells; experiment: P-STAT6 BEAS-2B+IL-13 Cell Assay; type: cell-based, human; settings: IL-13 stimulation, read-out: Cellular JAK1 PSTAT6 BEAS2B + IL13 IC50
Experimental: P-STAT6 BEAS-2B+IL-13 Cell Assay
In order to study the effect of JAK1 inhibitors in a cell line that is relevant to the cell biology of human asthma, an IL-13-stimulated STAT6 phosphorylation assay in the human lung bronchial epithelial BEAS-2B cell line was developed.
BEAS-2B cells (ATCC® CRL-9609™) were grown in Bronchial Epithelial Growth Medium (BEGM) (Lonza Catalog No. CC-3170; Walkersville, Md.; or PromoCell Catalog No. C-21060; Heidelberg, Germany). Test compound stock solutions (0.5 mM in DMSO) were serially diluted 1:2 in DMSO to generate a 10-point concentration curve (at 500×test concentration), which was further diluted by a 50-fold dilution step in BEGM to generate a 10× concentration curve (in 2% DMSO). Cells were plated at 100,000 cells/well in 200 μL of BEGM in 96-well plates and incubated for 48 hours at 37° C. in a humidified incubator. Medium was aspirated from the cells and replaced with 70 μL of fresh BEGM. Diluted test compound (10 μL; or 2% DMSO in assay medium) was added to the cells, and the plates were incubated for 1 hour at 37° C. in a humidified incubator. Twenty μL of 250 ng/mL human recombinant IL-13 (Bio Techne Catalog No. 213-ILB) was then added to the cells and incubated for 15 minutes at 37° C. Medium was aspirated from the cells and 60 μL of ice-cold 1×cell lysis buffer (Cell Signaling Technologies; Catalog No. 9803S) containing 1 mM PMSF was added to the cells. Assay plates were incubated at −80° C. for at least 1 hour. P-STAT6 was measured by coating GAR plates (MSD; Catalog No. L45RA-1) with rabbit anti-human total STAT6 antibody (Cell Signaling Technologies; Catalog No. 9362S), incubating the cell lysates in the coated plates overnight at 4° C., and then detecting with mouse anti-phospho-STAT6 (Tyr641) Clone 16E12 antibody (Millipore; Catalog No. 05-590, custom labeled by MSD with SULFO-tag) using standard MSD plate processing, washing, and detection protocols. Plates were read on the MESO SECTOR S600. Data Analysis
Data analysis was performed by subtracting negative control values from all wells and determining percent of control using the positive control values; the IC50 was determined with a four-parameter logistic fit model as shown in Equation 4.

[2] = target: Recombinant human JAK2 kinase domain protein (Residues 812-1132) (Homo sapiens, UniProt O60674); experiment: JAK2 biochemical assay (microfluidic mobility shift, peptide phosphorylation); settings: Enzyme JAK2 Ki (nM), 25 μM ATP, 0.2 nM total JAK2
Sequence of Recombinant human JAK2 kinase domain protein (Residues 812-1132) (O60674 812-1132): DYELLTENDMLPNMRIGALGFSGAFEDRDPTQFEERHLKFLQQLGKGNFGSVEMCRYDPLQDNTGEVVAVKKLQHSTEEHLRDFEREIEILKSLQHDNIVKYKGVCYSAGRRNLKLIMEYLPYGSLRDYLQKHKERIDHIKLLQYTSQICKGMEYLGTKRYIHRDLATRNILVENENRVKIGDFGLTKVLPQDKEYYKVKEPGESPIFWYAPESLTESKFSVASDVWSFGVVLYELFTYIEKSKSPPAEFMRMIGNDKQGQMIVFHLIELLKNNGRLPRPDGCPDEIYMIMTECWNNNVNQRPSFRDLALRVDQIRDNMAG
Experimental: The in vitro biochemical assays quantify JAK-catalyzed phosphorylation of a synthetic peptide, as detected using a LabChip® EZ Reader II microfluidic mobility shift instrument (PerkinElmer; Waltham, Mass.). […] Y-1B is fluorescently labeled on the N-terminus with 5-FAM (5-carboxyfluorescein) and contains a single tyrosine residue (Y) that can be phosphorylated by JAK activity. The substrate peptide stock is prepared in DMSO at 5 mM.
In each titration experiment, test compound was tested in duplicate at each of the twelve concentrations. Blank reactions contained ATP, peptide, and DMSO, but no JAK or test compound, whereas uninhibited control reactions contained ATP, peptide, JAK, and DMSO, but no test compound.
Peptide plus ATP mixture (24 μL) was added to 1 μL of test compound in DMSO (or DMSO alone). The reactions were initiated by adding 25 μL of JAK enzyme to the inhibitor/peptide/ATP mixture before thoroughly mixing the resultant solution. Reactions were incubated at room temperature (22° C.-23° C.) in a final volume of 50 μL per well in 384-well plates.
In each reaction, the residual Y-1B substrate and the phospho-peptide product generated were separated using the EZ Reader II instrument. Electrophoretic separation of molecules of product from molecules of substrate was achieved using downstream and upstream voltages of −500 and −2600 V, respectively, at an operating pressure of −1.3 psi.
The extent (or percent) of conversion of substrate to product was calculated from the corresponding peak heights in the electropherogram using HTS Well Analyzer software, Version 5.2 (PerkinElmer), and the following equation (Equation 1): % conversion=[P÷(S+P)]×100 Equation 1 where S and P represent the peak heights of the substrate and product, respectively. After any baseline signal from blank wells containing no JAK was subtracted from the signal of all test wells, the % conversion data were converted to fractional activity as shown in Equation 2, where vi and vo are the % conversion in the presence and absence of test compound, respectively.

[3] = target: T1, recombinant human JAK1 kinase domain protein (Residues 854-1154) (Homo sapiens, UniProt P23458); experiment: JAK1 biochemical assay (microfluidic mobility shift, peptide phosphorylation); settings: 25 μM ATP, 1 nM total JAK1; read-out: Enzyme JAK1 Ki
T1 construct: human JAK1 kinase domain protein (Residues 854-1154); purchased Proteros Biostructures GmbH (Martinsried, Germany); host or cells: insect cells
T1 sequence (P23458 854-1154): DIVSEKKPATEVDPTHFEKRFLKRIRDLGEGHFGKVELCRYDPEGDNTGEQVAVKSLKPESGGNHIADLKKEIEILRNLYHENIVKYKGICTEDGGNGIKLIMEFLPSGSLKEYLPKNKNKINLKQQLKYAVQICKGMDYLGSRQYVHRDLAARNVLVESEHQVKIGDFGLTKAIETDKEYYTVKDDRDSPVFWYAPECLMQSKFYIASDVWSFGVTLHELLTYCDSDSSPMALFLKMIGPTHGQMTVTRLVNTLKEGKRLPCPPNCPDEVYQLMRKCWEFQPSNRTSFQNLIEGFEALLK
Description: JAK1 and JAK2 Biochemical Assays

Ki [2] [nM]	Ki [3] [nM]	Structure (SMILES)	IC50 ([1]; Homo sapiens, BEAS-2B) [nM]	IC50 [1] [nM]
0.38	0.84	Cn1cc(NC(=O)c2cnn3cccnc23)c(-c2cc(S(N)(=O)=O)ccc2OC(F)F)n1 [Example 31, N-[3-[2-(difluoromethoxy)-5-sulfamoyl-phenyl]-1-methyl-pyrazol-4-yl]pyrazolo[1,5-a]pyrimidine-3-carboxamide]	51	–
0.18	0.55	Cn1cc(NC(=O)c2cnn3cccnc23)c(-c2cc(S(=O)(=O)c3c[nH]cn3)ccc2OC(F)F)n1 [Example 66, N-[3-[2-(difluoromethoxy)-5-(1H-imidazol-4-ylsulfonyl)phenyl]-1-methyl-pyrazol-4-yl]pyrazolo[1,5-a]pyrimidine-3-carboxamide]	380	–
0.27	0.5	Cn1cc(NC(=O)c2cnn3cccnc23)c(-c2cc(S(=O)(=O)c3ccc(=O)[nH]c3)ccc2OC(F)F)n1 [Example 43, N-[3-[2-(difluoromethoxy)-5-[(6-oxo-1H-pyridin-3-yl)sulfonyl]phenyl]-1-methyl-pyrazol-4-yl]pyrazolo[1,5-a]pyrimidine-3-carboxamide]	≥ 1000	–
0.29	0.31	CC(C)OC(=O)n1cc(NC(=O)c2cnn3cccnc23)c(-c2cc(S(C)(=O)=O)ccc2OC(F)F)n1 [Example 34, isopropyl 3-[2-(difluoromethoxy)-5-methylsulfonyl-phenyl]-4-(pyrazolo[1,5-a]pyrimidine-3-carbonylamino)pyrazole-1-carboxylate]	21	–
0.48	0.82	Cn1cc(NC(=O)c2cnn3cccnc23)c(-c2cc(S(=O)(=O)CCN)ccc2OC(F)F)n1 [Example 8, N-[3-[5-(2-aminoethylsulfonyl)-2-(difluoromethoxy)phenyl]-1-methyl-pyrazol-4-yl]pyrazolo[1,5-a]pyrimidine-3-carboxamide]	92	–
0.33	1	CC(O)C(C)S(=O)(=O)c1ccc(OC(F)F)c(-c2nn(C)cc2NC(=O)c2cnn3cccnc23)c1 (single isomer, unassigned) [Example 70, N-[3-[2-(difluoromethxoy)-5-(2-hydroxy-1-methyl-propyl)sulfonyl-phenyl]-1-methyl-pyrazol-4-yl]pyrazolo[1,5-a]pyrimidine-3-carboxamide]	–	75
0.25	0.34	C[C@H](O)Cn1cc(S(=O)(=O)c2ccc(OC(F)F)c(-c3nn(C)cc3NC(=O)c3cnn4cccnc34)c2)cn1 [Example 38, N-[3-[2-(difluoromethoxy)-5-[1-[(2S)-2-hydroxypropyl]pyrazol-4-yl]sulfonyl-phenyl]-1-methyl-pyrazol-4-yl]pyrazolo[1,5-a]pyrimidine-3-carboxamide]	89	–
0.65	1.5	CN1CCC(S(=O)(=O)c2ccc(OC(F)F)c(-c3nn(C)cc3NC(=O)c3cnn4cccnc34)c2)C1 (single isomer, unassigned) [Example 20, N-[3-[2-(difluoromethoxy)-5-(1-methylpyrrolidin-3-yl)sulfonyl-phenyl]-1-methyl-pyrazol-4-yl]pyrazolo[1,5-a]pyrimidine-3-carboxamide]	–	65
0.24	0.48	Cn1cc(NC(=O)c2cnn3cccnc23)c(-c2cc(S(=O)(=O)c3cncnc3)ccc2OC(F)F)n1 [Example 67, N-[3-[2-(difluoromethoxy)-5-pyrimidin-5-ylsulfonyl-phenyl]-1-methyl-pyrazol-4-yl]pyrazolo[1,5-a]pyrimidine-3-carboxamide]	25	–
0.54	0.57	CN1CCCC1CCn1cc(S(=O)(=O)c2ccc(OC(F)F)c(-c3nn(C)cc3NC(=O)c3cnn4cccnc34)c2)cn1 (stereo in doubt) [Example 57, N-[3-[2-(difluoromethoxy)-5-[1-[2-[(2S)-1-methylpyrrolidin-2-yl]ethyl]pyrazol-4-yl]sulfonyl-phenyl]-1-methyl-pyrazol-4-yl]pyrazolo[1,5-a]pyrimidine-3-carboxamide]	54	–
0.37	0.58	N#CCn1cc(NC(=O)c2cnn3cccnc23)c(-c2cc(S(=O)(=O)C(F)F)ccc2OC(F)F)n1 [Example 29, N-[1-(cyanomethyl)-3-[2-(difluoromethoxy)-5-(difluoromethylsulfonyl)phenyl]pyrazol-4-yl]pyrazolo[1,5-a]pyrimidine-3-carboxamide]	25	–
0.93	2	CN1C=Cc2ccc(S(=O)(=O)c3ccc(OC(F)F)c(-c4nn(C)cc4NC(=O)c4cnn5cccnc45)c3)cc2C1 [Example 62, N-[3-[2-(difluoromethoxy)-5-[(2-methyl-1H-isoquinolin-7-yl)sulfonyl]phenyl]-1-methyl-pyrazol-4-yl]pyrazolo[1,5-a]pyrimidine-3-carboxamide]	150	–
0.84	1.9	CN1C=Cc2cc(S(=O)(=O)c3ccc(OC(F)F)c(-c4nn(C)cc4NC(=O)c4cnn5cccnc45)c3)ccc2C1 [Example 64, N-[3-[2-(difluoromethoxy)-5-[(2-methyl-1H-isoquinolin-6-yl)sulfonyl]phenyl]-1-methyl-pyrazol-4-yl]pyrazolo[1,5-a]pyrimidine-3-carboxamide]	210	–
1.7	4	CN1CCC(S(=O)(=O)c2ccc(OC(F)F)c(-c3nn(C)cc3NC(=O)c3cnn4cccnc34)c2)C1 (single isomer, unassigned) [Example 19, N-[3-[2-(difluoromethoxy)-5-(1-methylpyrrolidin-3-yl)sulfonyl-phenyl]-1-methyl-pyrazol-4-yl]pyrazolo[1,5-a]pyrimidine-3-carboxamide]	120	–
0.24	0.72	Cn1cnc(S(=O)(=O)c2ccc(OC(F)F)c(-c3nn(C)cc3NC(=O)c3cnn4cccnc34)c2)c1 [Example 65, N-[3-[2-(difluoromethoxy)-5-(1-methylimidazol-4-yl)sulfonyl-phenyl]-1-methyl-pyrazol-4-yl]pyrazolo[1,5-a]pyrimidine-3-carboxamide]	72	–
0.26	0.59	CC(=O)N1CC(S(=O)(=O)c2ccc(OC(F)F)c(-c3nn(C)cc3NC(=O)c3cnn4cccnc34)c2)C1 [Example 27, N-[3-[5-(1-acetylazetidin-3-yl)sulfonyl-2-(difluoromethoxy)phenyl]-1-methyl-pyrazol-4-yl]pryazolo[1,5-a]pyrimidine-3-carboxamide]	99	–
0.19	0.94	Cn1cc(NC(=O)c2cnn3cccnc23)c(-c2cc(S(=O)(=O)c3cnn(CCN4CCC4)c3)ccc2OC(F)F)n1 [Example 53, N-[3-[5-[1-[2-(azetidin-1-yl)ethyl]pyrazol-4-yl]sulfonyl-2-(difluoromethoxy)phenyl]-1-methyl-pyrazol-4-yl]pyrazolo[1,5-a]pyrimidine-3-carboxamide]	50	–

Structure (SMILES)	Ki [2] [nM]	Ki [3] [nM]	IC50 ([1]; Homo sapiens, BEAS-2B) [nM]	IC50 [1] [nM]
Cn1cc(NC(=O)c2cnn3cccnc23)c(-c2cc(S(=O)(=O)c3cnn(C4CN5CCC4CC5)c3)ccc2OC(F)F)n1 (stereo not drawn) [Example 55, N-[3-[2-(difluoromethoxy)-5-(1-quinuclidin-3-ylpyrazol-4-yl)sulfonyl-phenyl]-1-methyl-pyrazol-4-yl]pyrazolo[1,5-a]pyrimidine-3-carboxamide]	0.98	0.93	71	–
